Columns and labels:
[1] = system: exploratory locomotor activity in rats; test: Inhibition of exploratory locomotor activity, rat PO (McLean et al. screen); format: in vivo; conditions: read-out: Inh. Loc. Act. (rat PO) (ED50)
Source text: (§1) All compounds shown in the following Table 1 are active in laboratory tests that have been useful as predictors of antipsychotic efficacy (e.g., treatment of schizophrenia). Among these tests described by J. R. McLean, R. B. Parker, and L. L. Coughenour in Pharmacol. Biochem. Behav. 1978 (8) 97, is one which screens for compounds that decrease exploratory locomotor activity in mice and rats without causing ataxia. […] All known antipsychotic agents are active in this test. Our compounds are also active at doses as low as 0.35 mg/kg.

[2] = system: exploratory locomotor activity in mice; test: Inhibition of exploratory locomotor activity, mouse IP (McLean et al. screen); format: in vivo; conditions: read-out: Inh. Loc. Act. (mouse IP) (ED50)
Source text: as §1

[3] = system: synthesis of dopamine; test: Dopamine synthesis in rats treated with gamma-butyrolactone (GBL); format: in vivo, rat

Row | Structure (SMILES) | ED50 [1] | ED50 [2] | synthesis of dopamine [3]
1 | O=c1ccoc2cc(OCCCN3CCN(c4cccc(Cl)c4)CC3)ccc12 [compound 5] | 8.5 mg/kg | 7.7 mg/kg | –
2 | Cc1ccccc1N1CCN(CCCOc2ccc3c(=O)ccoc3c2)CC1 [compound 8] | 30 mg/kg | 2 mg/kg | –
3 | O=c1ccoc2cc(OCCCN3CCN(c4ncccn4)CC3)ccc12 [compound 21] | > 30 mg/kg | 23.7 mg/kg | –
4 | O=c1ccoc2cc(OCCCN3CCN(c4ccccn4)CC3)ccc12 [compound 12] | 1.7 mg/kg | 5 to 6 mg/kg | –
5 | COc1ccccc1N1CCN(CCCOc2ccc3c(=O)ccoc3c2)CC1 [compound 6] | > 30 mg/kg | 7.7 mg/kg | –
6 | Cc1ccc(N2CCN(CCCOc3ccc4c(=O)ccoc4c3)CC2)cc1C [compound 17] | 7.3 mg/kg | 3 mg/kg | –
7 | Cc1ccc(N2CCN(CCCOc3ccc4c(=O)ccoc4c3)CC2)cc1 [compound 10] | 22.3 mg/kg | 6.1 mg/kg | –
8 | COc1ccc(N2CCN(CCCOc3ccc4c(=O)ccoc4c3)CC2)cc1 [compound 15] | > 30 mg/kg | 30 mg/kg | –
9 | O=c1ccoc2cc(OCCCN3CCN(c4ccccc4)CC3)ccc12 [compound 2, 7-[3-(4-phenylpiperazinyl)propoxy]-4H-1-benzopyran-4-one] | 4.3 mg/kg | 2.4 mg/kg | –
10 | O=c1ccoc2cc(OCCCN3CCN(c4ccc(F)cc4)CC3)ccc12 [compound 11] | 7.1 mg/kg | 7 mg/kg | –
11 | O=c1ccoc2cc(OCCCN3CCN(c4ccc(Cl)c(Cl)c4)CC3)ccc12 [compound 14] | 17.8 mg/kg | 14 to 15 mg/kg | –
12 | O=c1ccoc2cc(OCCCN3CCN(c4cccc(O)c4)CC3)ccc12 [compound 16] | – | > 30 mg/kg | –
13 | O=c1ccoc2cc(OCCCCN3CCN(c4ccccc4)CC3)ccc12 [compound 20, 7-[4-(4-Phenyl-1-piperazinyl)butoxy]-4H-1-benzopyran-4-one] | 1.9 mg/kg | 0.35 mg/kg | –
14 | O=c1ccoc2cc(OCCCN3CC=C(c4ccccc4)CC3)ccc12 [compound 1, 7-[3-(4-Phenyl-1,2,3,6-tetrahydro-1-pyridyl)propoxy]-4H-1-benzopyran-4-one] | 29.5 mg/kg | 0.7 mg/kg | inhibition of the synthesis of dopamine
15 | O=c1ccoc2cc(OCCCN3CCC(c4ccccc4)CC3)ccc12 [compound 7, 7-[3-(4-Phenyl-1-piperidinyl)propoxy]-4H-1-benzopyran-4-one] | > 30 mg/kg | 14.8 mg/kg | –
16 | Cc1cccc(N2CCN(CCCOc3ccc4c(=O)ccoc4c3)CC2)c1C [compound 4] | 13.2 mg/kg | 11.2 mg/kg | –
17 | O=c1ccoc2cc(OCCCN3CCN(c4ccc(Cl)cc4)CC3)ccc12 [compound 3] | 18.6 mg/kg | 11.1 mg/kg | –
18 | O=c1ccoc2cccc(OCCCN3CCN(c4ccccc4)CC3)c12 [compound 18, 5-3-(4-phenyl-1-piperazinyl)propoxyl-4H-1-benzopyran-4-one] | 15.6 mg/kg | 13.3 mg/kg | –
19 | O=c1ccoc2ccc(OCCCCN3CCN(c4ccccc4)CC3)cc12 [compound 19, 6-[4-(4-phenyl-1-piperazinyl)butoxy]-4H-1-benzopyran-4-one] | 1.5 mg/kg | 3 mg/kg | –
20 | O=c1ccoc2cc(OCCCN3CCN(c4ccccc4Cl)CC3)ccc12 [compound 13, 7-[3-(4-(2-Chlorophenyl)-1-piperazinyl)propoxy]-4H-1-benzopyran-4-one] | – | > 30 mg/kg | –
21 | Cc1cccc(N2CCN(CCCOc3ccc4c(=O)ccoc4c3)CC2)c1 [compound 9] | 4.8 mg/kg | 5.4 mg/kg | –
